# Results from patent EP3839043A1, “SCREENING METHODS FOR COMPOUNDS MODULATING POLYAMINE TRANSPORT” (Katholieke Universiteit Leuven, priority 2019, dated 2021).
# Assays:
# D508N mutant = D508N mutant (Homo sapiens, UniProt Q9NQ11, D513N); settings: 100 µM SPM
# Experimental: Membrane fractionation - Transduced SH-SY5Y cells were seeded in […] at a density of 6 x 10^6 cells per plate. 24 h later, the cells were harvested following trypsinization and brief centrifugation (300 x g, 5 min). Subcellular fractionation was performed by differential centrifugation. The microsomal protein concentration was measured using the bicinchoninic acid assay (Thermo Fischer Scientific, Pierce) according to the manufacturer's instructions.
# ATPase assay - The ATPase activity of ATP13A2 was assessed using a commercially available luminescence assay (ADP-Glo Max assay, Promega) that monitors the production of ADP via luciferase activity. The reactions were performed for 30 min (37°C) in a final volume of 25 µl. The assay reaction mixture contained 50 mM MOPS-KOH (pH 7), 100 mM KCI, 11 mM MgCl2, 1 mM DTT, 195 µM DDM, various concentrations of the indicated compound, and either microsomes (5 µg) harvested from SH-SY5Y cells overexpressing ATP13A2 (WT or mutants) or purified ATP13A2 (0.5 µg). When purified ATP13A2 was used, we included 125 µM PA, 125 µM PI(3,5)P2 and 19.5 µM DDM in the reaction buffer. […] After 40 min, luminescence was detected using a FlexStation 3.0 system (Molecular Devices). Dose-response curves and n/Km/Vmax values were calculated using GraphPad Prism Software (GraphPad Software Inc.).
# ATP13A2 = ATP13A2 (Homo sapiens, UniProt Q9NQ11)
# Experimental: (§1) PLoS One 13, e0193228, (2018)].
# (§2) In case of purified ATP13A2, 125 µM PA and 125 µM PI(3,5)P2 were included in the reaction mixture. To determine the sensitivity of the ATP13A2 phosphoenzyme to ATP or a combination of ATP and SPM, 30 s after adding ^32P-ATP, samples were incubated with non-radioactive ATP (5 mM in experiments using microsomes, 1 mM when purified ATP13A2 was used) and SPM (1 mM) before the reaction was stopped at indicated time points. The incorporation of ^32P was visualized following SDS-PAGE under acidic conditions and subsequently detected by autoradiography (microsomes) or liquid scintillation counting (purified ATP13A2) (Liquid Scintillation Analyzer TRI-CARB 2900TR).
# Purified ATP13A2 = biological target: T1, Purified ATP13A2 (Homo sapiens, UniProt Q9NQ11); settings: 1 mM SPM
# T1 sequence (Q9NQ11 1-1175 isoform Q9NQ11-3): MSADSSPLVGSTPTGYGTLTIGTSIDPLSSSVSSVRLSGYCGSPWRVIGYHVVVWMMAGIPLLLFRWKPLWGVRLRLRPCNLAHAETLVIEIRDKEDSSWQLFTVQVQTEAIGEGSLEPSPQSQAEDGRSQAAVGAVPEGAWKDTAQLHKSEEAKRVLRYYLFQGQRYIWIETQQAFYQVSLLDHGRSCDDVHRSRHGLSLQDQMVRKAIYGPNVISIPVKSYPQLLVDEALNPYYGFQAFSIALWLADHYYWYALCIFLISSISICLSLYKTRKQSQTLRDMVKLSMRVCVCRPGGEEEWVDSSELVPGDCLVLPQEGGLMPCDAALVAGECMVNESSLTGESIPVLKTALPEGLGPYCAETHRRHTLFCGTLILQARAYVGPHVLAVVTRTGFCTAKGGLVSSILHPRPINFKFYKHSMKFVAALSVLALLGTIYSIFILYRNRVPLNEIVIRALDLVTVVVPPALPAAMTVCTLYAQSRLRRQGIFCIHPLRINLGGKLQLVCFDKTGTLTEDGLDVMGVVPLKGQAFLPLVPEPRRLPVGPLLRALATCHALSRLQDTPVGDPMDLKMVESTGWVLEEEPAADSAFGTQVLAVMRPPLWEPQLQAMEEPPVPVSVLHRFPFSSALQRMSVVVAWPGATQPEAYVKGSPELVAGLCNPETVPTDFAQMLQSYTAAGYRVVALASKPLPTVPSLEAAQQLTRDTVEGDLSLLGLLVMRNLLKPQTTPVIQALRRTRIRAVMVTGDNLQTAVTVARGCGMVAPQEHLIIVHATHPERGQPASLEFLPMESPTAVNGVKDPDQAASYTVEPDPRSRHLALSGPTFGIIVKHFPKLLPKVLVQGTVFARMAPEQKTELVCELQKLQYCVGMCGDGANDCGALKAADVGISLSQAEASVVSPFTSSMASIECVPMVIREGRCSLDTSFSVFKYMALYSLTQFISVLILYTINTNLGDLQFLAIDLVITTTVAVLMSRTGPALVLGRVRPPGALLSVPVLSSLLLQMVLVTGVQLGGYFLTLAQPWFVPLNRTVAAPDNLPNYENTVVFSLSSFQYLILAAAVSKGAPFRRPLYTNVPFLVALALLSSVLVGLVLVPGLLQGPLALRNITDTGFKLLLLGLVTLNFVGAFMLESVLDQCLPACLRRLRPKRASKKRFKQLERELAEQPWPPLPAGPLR
# Experimental: as §1, §2
# cathepsin B (CTSB) = settings: toxic SPM levels (10 µM, 4 h)
# Experimental: (§3) Cathepsin activity assays - SH-SY5Y cells were seeded in 10 cm^2 plates (2 X 10^6 cells per plate) and allowed to adhere overnight prior to treatment with 10 µM SPM for 4 h at 37°C. For samples requiring acidic nanoparticle addition, 180 ng/ml nanoparticles were added 1 h prior to SPM addition. Next, the samples were harvested using TRYPLE and a brief centrifugation (300 x g; 5 min). CTSB (ab65300) and CTSD (ab65302) activities were assessed using commercially available kits (Abcam) according to the manufacturer's instructions. MFI were acquired using a FlexStation 3.0 multi-well plate reader (Molecular Devices).
# cathepsin D (CTSD) = settings: toxic SPM levels (10 µM, 4 h)
# Experimental: as §3
# SH-SY5Y cells [1] = test system: SH-SY5Y cells
# Experimental: PI exclusion assay - Cells were seeded in 12-well plates (1.0 X 10^5 cells per well) and the next day, the cells were treated with increasing doses of SPM, alone or in combination with the CTSB inhibitor CA-074 (25 µM, 1 h pre-incubation) or acidic nanoparticles (180 ng/ml, 1 h pre-incubation), and incubated for 24 h at 37°C. Thereafter, the cells were harvested following trypsinization and a brief centrifugation (300 x g; 5 min), washed with PBS and stained with 1 µg/ml PI (in PBS containing 1% BSA). An Attune Nxt (Thermo Fischer Scientific) flow cytometer was used to determine the proportion of PI-positive cells (10,000 events per treatment).
# SH-SY5Y cells [2] = settings: KO and KO/D508N cells; 10 µM SPM, 4 h
# Experimental: FITC-dextran based lysosomal pH - SH-SY5Y cells were seeded in 12-well plates (1.0 X 10^5 cells per well) and allowed to adhere overnight. Cells were exposed to 50 µg/ml FITC-dextran for 72 h. Samples were then washed, placed in fresh media and treated with SPM (10 µM) alone or in combination with acidic nanoparticles (180 ng/ml, 1 h pre-incubation) for 4 h. Samples were then collected by centrifugation (450 x g, 5 min) and washed in PBS. Cells were finally resuspended in 500 µl of PBS containing 1% BSA and FITC dual emission assessed by flow cytometry (excitation 488 nm, emission 530 (BL1) and 600 (BL2)) using an Attune NXT flow cytometer (Invitrogen). The emission (BL1/BL2) of all samples were compared to a standard curve, whereby signals were obtained from control cells resuspended in monensin (100 µM) containing Britton Robinson buffer with increasing pH (3.0-8.0).
# SH-SY5Y cells [3] = settings: KO and KO/D508N cells; SPM 10 µM, 4 h
# Experimental: BODIPY-SPM localization and lysosomal rupture analysis - For all immunofluorescent stainings SH-SY5Y cell lines were seeded in 12-well plates (0.25 X 10^5 cells per well on coverslips) and the next day, the cells were incubated with the indicated compounds for 4 h at 37°C. For BODIPY-SPM analysis, cells were pulsed with 5 µM SPM for 15 min, washed and chased in fresh media for a further 1 h and 45 min at 37°C. Following treatments, the cells were washed twice in PBS, fixed in 4% paraformaldehyde for 30 min (37°C), washed in PBS and stored at 4°C. For immunofluorescence staining, the cells were washed in PBS containing 0.5% Tween 20 (PBS-T), permeabilized in PBS containing 0.1% Triton X-100 (30 min) and blocked first in 0.1 M glycine and then in PBS-T containing 1% fetal calf serum and 10% BSA. Gal-3-, LAMP1- and cathepsin B-specific antibodies were used at a dilution of 1:100-200 (in PBS-T containing 1% BSA) overnight at 4°C. Subsequently, the samples were washed and incubated with Alexa Fluor™ secondary antibody (1:1,000, 30 min). To assess FITC-dextran release, cells were loaded with 50 µg/ml FITC-dextran for 72 h, cells were then washed and placed in fresh media for 1 h prior to SPM (10 µM) addition. To visualize the nucleus, all samples were stained with DAPI. […]
# Chain of D508N mutant (Q9NQ11 1-1175 isoform Q9NQ11-3 D508N): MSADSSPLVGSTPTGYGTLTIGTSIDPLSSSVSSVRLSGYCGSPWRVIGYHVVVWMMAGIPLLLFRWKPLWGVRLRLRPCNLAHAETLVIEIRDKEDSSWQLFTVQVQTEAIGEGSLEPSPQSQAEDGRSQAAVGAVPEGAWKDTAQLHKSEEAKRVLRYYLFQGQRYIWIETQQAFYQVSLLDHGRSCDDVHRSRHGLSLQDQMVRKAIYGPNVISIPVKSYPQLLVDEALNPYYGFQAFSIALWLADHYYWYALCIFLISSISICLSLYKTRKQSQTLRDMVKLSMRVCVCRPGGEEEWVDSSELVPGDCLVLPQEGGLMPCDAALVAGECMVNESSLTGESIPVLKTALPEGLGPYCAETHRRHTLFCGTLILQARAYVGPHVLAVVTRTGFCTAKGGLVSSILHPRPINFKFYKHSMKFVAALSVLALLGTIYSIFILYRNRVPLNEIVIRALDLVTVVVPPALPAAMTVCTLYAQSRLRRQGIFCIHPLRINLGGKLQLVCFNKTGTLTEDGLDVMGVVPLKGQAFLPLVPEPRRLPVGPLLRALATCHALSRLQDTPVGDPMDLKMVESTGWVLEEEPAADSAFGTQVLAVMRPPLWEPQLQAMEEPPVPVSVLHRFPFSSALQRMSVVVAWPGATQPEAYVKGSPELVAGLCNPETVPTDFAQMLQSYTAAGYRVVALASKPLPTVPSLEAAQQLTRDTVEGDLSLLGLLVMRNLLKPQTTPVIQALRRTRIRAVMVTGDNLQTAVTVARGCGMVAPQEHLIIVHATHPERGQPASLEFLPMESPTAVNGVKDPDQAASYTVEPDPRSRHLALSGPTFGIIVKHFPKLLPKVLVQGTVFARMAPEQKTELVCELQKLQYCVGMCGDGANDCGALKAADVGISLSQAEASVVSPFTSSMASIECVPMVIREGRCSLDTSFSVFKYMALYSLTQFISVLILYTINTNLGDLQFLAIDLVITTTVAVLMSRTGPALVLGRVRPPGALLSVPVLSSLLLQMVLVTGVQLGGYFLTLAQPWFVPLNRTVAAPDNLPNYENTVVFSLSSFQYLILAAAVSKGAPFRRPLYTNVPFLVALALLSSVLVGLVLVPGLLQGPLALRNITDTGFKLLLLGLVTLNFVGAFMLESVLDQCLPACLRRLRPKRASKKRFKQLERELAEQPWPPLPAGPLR
smiles,measurement,setting,value
"NCCCNCCCCNCCCN [Spermine, spermine]",ATPase activity of D508N mutant,D508N mutant,had no effect
same,ATP13A2 phospho-enzyme levels,"ATP13A2; WT-OE microsomes 20 µg, 60 s with [γ-32P] ATP",dose-dependent reduction
same,dephosphorylation rate following a chase with non-radioactive ATP,"ATP13A2; WT-OE microsomes, 1 mM SPM",significantly higher dephosphorylation rate
same,dephosphorylation of purified WT after chase with cold ATP,Purified ATP13A2,clearly stimulates dephosphorylation
same,cathepsin B (CTSB) activity,cathepsin B (CTSB),increased
same,cathepsin D (CTSD) activity,cathepsin D (CTSD),decreased
same,cell death,SH-SY5Y cells [1],increase in cell death
same,lysosomal pH,SH-SY5Y cells [2],further increased
same,endogenous Gal-3 punctae,SH-SY5Y cells [3],increased both the number and size
